In one data set the test system is rhesus monkeys. Type of data set: in vivo. Particulars: rhesus monkey. As to the method:
Administration of Natriuretic Peptides to Rhesus Monkeys. […] A second iv catheter was inserted for fluid administration and blood withdrawal. A urinary catheter was inserted and urine flow monitored at 10 minute intervals. Urine output and blood withdrawal volumes were replaced by intravenous administration of equal volumes of equal parts of one-half normal saline and 5% (W/V) dextrose in water (D5W). […] Every ten minutes, urine, if present, was collected, the volume recorded and analyzed for sodium and potassium content.

For the next data set, the target named is T1, hNPR-C (Homo sapiens, UniProt P17342).
T1 sequence (P17342 27-541): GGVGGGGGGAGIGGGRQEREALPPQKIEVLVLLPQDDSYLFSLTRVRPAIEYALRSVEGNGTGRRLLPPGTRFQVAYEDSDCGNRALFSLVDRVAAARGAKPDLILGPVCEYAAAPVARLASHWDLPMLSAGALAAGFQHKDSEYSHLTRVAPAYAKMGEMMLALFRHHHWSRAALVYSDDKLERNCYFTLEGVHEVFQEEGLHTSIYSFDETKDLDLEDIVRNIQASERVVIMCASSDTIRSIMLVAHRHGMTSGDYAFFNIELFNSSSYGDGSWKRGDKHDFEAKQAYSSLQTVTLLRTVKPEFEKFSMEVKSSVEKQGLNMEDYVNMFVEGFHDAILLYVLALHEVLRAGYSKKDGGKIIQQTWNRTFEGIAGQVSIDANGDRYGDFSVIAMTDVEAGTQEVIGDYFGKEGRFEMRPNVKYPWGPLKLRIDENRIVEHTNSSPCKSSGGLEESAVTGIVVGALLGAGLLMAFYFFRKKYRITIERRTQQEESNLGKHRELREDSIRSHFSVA
The experiment in a line: Competition binding to hNPR-C (Table I, FIG. 5).

The next data set has as its target T2, hNPR-A (Homo sapiens, UniProt P16066).
T2 sequence (P16066 33-1061): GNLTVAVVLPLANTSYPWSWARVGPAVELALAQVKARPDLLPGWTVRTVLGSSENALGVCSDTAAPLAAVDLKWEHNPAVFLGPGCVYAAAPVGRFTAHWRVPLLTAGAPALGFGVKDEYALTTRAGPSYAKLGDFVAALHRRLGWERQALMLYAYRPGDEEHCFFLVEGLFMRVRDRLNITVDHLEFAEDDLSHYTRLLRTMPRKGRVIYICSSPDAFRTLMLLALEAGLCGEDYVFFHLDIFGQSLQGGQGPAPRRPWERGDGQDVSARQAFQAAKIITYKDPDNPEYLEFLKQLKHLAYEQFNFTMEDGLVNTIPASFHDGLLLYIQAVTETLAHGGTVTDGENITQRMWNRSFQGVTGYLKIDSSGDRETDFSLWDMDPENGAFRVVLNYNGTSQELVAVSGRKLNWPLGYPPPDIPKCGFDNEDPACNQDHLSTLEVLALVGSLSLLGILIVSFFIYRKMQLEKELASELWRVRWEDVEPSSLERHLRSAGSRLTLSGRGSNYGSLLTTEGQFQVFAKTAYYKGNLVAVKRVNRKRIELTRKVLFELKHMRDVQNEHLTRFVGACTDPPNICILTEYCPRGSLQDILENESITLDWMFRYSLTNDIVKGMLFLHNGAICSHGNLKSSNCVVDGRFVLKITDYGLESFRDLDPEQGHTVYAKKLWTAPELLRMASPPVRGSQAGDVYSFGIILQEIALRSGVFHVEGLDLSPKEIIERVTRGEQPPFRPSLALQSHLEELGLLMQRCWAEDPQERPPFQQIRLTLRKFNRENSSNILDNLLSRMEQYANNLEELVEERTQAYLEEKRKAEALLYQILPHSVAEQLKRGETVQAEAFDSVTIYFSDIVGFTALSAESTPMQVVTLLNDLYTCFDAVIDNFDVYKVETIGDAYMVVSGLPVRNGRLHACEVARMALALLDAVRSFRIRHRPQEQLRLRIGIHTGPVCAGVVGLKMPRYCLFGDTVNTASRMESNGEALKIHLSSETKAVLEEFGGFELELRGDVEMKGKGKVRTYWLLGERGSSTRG
The experiment in a line: Competition binding to hNPR-A (Table I, FIG. 5).

Where a SMILES comes first, the peptide text is derived from it. Bridges are numbered along the chain shown (N, C = ends).

Turning to `CC[C@H](C)[C@@H]1NC(=O)[C@H](CCCNC(=N)N)NC(=O)[C@H](CC(=O)O)NC(=O)[C@H]([C@@H](C)CC)NC(=O)[C@H](CO)NC(=O)CNC(=O)[C@H]([C@@H](C)O)NC(=O)[C@H](Cc2ccccc2)NC[C@@H](NC(=O)[C@H](CO)NC(=O)[C@H](CO)NC(=O)[C@H](CCCNC(=N)N)NC(=O)[C@H](CCCNC(=N)N)NC(=O)[C@H](CC(C)C)NC(=O)[C@@H](N)CO)CSSC[C@@H](C(=O)N[C@@H](CC(N)=O)C(=O)N[C@@H](CO)C(=O)N[C@@H](Cc2ccccc2)C(=O)N[C@@H](CCCNC(=N)N)C(=O)N[C@@H](Cc2ccc(O)cc2)C(=O)O)NC(=O)CNC(=O)[C@H](CC(C)C)NC(=O)CNC(=O)[C@H](CO)NC(=O)[C@H](CCC(N)=O)NC(=O)[C@H](C)NC(=O)[C@H](CCCNC(=N)N)NC1=O` [ANF 84], in the data set on rhesus monkeys (7.5 ng/kg/min 60-minute infusion), the “Urine flow, potassium excretion and sodium excretion” value is “began to rise in parallel at the beginning of the 7.5 ng/kg/min infusion, but returned to baseline by 60 minutes”. Besides, in the data set on rhesus monkeys (25 ng/kg/min infusion), the Potassium excretion entry was “remained at slightly-elevated levels”, the “Sodium excretion above baseline” value is reported as ~100 fold and the “Urine flow above baseline” value is listed as “approximately 10 fold”. Further, the Systolic arterial pressure entry with rhesus monkeys (escalating iv infusion from 7.5 ng/kg/min) is given as “began to gradually decline”. Besides, in the data set with rhesus monkeys (in vivo), the “Infusion rate at which dosing was discontinued because of hypotension” value was determined as 25 ng/kg/min.
Take `CC[C@H](C)[C@@H]1NC(=O)[C@H](CCCNC(=N)N)NC(=O)[C@H](CC(=O)O)NC(=O)[C@H]([C@@H](C)CC)NC(=O)[C@H](CO)NC(=O)CNC(=O)[C@H]([C@@H](C)O)NC(=O)[C@H](Cc2ccccc2)NC(=O)[C@@H](NC(=O)[C@H](CO)NC(=O)[C@H](CO)NC(=O)[C@H](CCCNC(=N)N)NC(=O)[C@H](CCCNC(=N)N)NC(=O)[C@H](CC(C)C)NC(=O)[C@H](CO)NC(=O)[C@H](CCCNC(=N)N)NC(=O)[C@@H]2CCCN2C(=O)[C@H](C)NC(=O)[C@@H](N)[C@@H](C)O)CSSC[C@@H](C(=O)N[C@@H](CC(N)=O)C(=O)N[C@@H](CO)C(=O)N[C@@H](Cc2ccccc2)C(=O)N[C@@H](CCCNC(=N)N)C(=O)N[C@@H](Cc2ccc(O)cc2)C(=O)O)NC(=O)CNC(=O)[C@H](CC(C)C)NC(=O)CNC(=O)[C@H](CO)NC(=O)[C@H](CCC(N)=O)NC(=O)[C@H](C)NC(=O)[C@H](CCCNC(=N)N)NC1=O` [ANF 76] (H-TAPRSLRRSSCFTGSIDRIRAQSGLGCNSFRY-OH; disulfide 11-27; C-terminus assumed): the 50% inhibitory concentration (IC50) amounted to 10 µM on hNPR-C and 8.9 pM on hNPR-A.

As usually defined, the IC50 is the concentration that inhibits the measured activity by half.

The values above are taken from patent US6525022B1, “Receptor specific atrial natriuretic peptides” (Genentech, Inc., priority 1993, dated 2003).
